Results reported in patent US20100130579A1, “CANCER THERAPY” (Georgetown University, priority 2006, published 2010).

Legend:
cyclin D1 [1] = assay: Gene array (microarray) analysis of cyclin D1 expression; assay type: cell-based, human; settings: PC3 cells, 2 μg/ml, 2 days
Description: FIGS. 2A-2D. Mahanine down-regulates cyclin D1 expression in prostate and other cancer cells. FIG. 2A: Microarray analyses showing PC3 cells treated with (2 μg/ml) mahanine (+) or vehicle (−) for 2 days and RNA was extracted and microarray analysis was performed. FIG. 2B and FIG. 2C: PC3 (left panel) and LNCaP (right panel) cells were treated with 0, 1, 2 and 3 μg/ml mahanine for 3 days. RNA was extracted, and RT-PCR assays were performed to detect cyclin D1 and GAPDH mRNAs. Representative photograph from an experiment that was repeated thrice. Quantitative estimations of relative levels of cyclin D1 mRNAs (lower panel) were determined by densitometric measurements of RT-PCR gels from three independent experiments after normalization with GAPDH. […]
Microarray analysis: Total RNA was isolated from […] cells treated with or without mahanine using TRIZOL reagent (Invitrogen Corp., Carlsbad, Calif.). […] RNA was evaluated by electrophoresis before continuing with probe synthesis and hybridization. […] Following repetitive washing in saline-sodium citrate/SDS, hybridized cDNA probes were detected by chemiluminescence. […] Bound biotinylated cDNA probe was detected with alkaline phosphatase-conjugated streptavidin and CDP-Star chemiluminescent substrate (SuperArray). […]

cyclin A1 = assay: RT-PCR of cyclin A1 mRNA in prostate cancer cells; assay type: cell-based, human; settings: PC3 or LNCaP cells, mahanine treatment
cyclin D1 protein = assay: Western blot of cyclin D1 protein levels; assay type: cell-based, human; settings: 3 days
Description: (§1) FIGS. 3A-3C. Mahanine down-regulates cyclin D1 protein in prostate cancer cells. FIG. 3A and FIG. 3B: Western blots showing cyclin D1 protein levels in PC3 (A) and LNCaP (B) cells treated with 0, 1, 2 and 3 μg/ml mahanine for 3 days. Protein lysates (50 μg) from PC3 and LNCaP cells were resolved on 12% SDS-PAGE, and immunoblots were probed with antibodies to cyclin D1. All immunoblots were re-probed with β-actin antibodies to ensure equal loading. Representative photographs from an experiment that was repeated thrice. Quantitative analyses of relative levels of cyclin D1 proteins are shown on the right panels. […] FIG. 3C: PC3 cells were plated on chamber slides and treated with or without 2 μg/ml mahanine for 2 days. Cells were then fixed in methanol, incubated with cyclin D1 antibody overnight, Alexi Fluor-conjugated secondary antibodies for 1 hour and counter stained with propidium iodide (PI). Slides were then mounted and examined using a fluorescence microscope. Photographs were taken at the same magnification (×20) and then transported to Photoshop. Representative photographs from an experiment that was repeated twice.
Western blots analysis: Protein lysates were prepared from PC3 and LNCaP cells that were treated with or without mahanine. […] Band intensities were quantified by utilizing ImageJ software (NIH, Bethesda, Md.).

cyclin D1 [2] = assay: Immunofluorescence staining of cyclin D1 localization; assay type: cell-based, human; settings: PC3 cells, 2 μg/ml, 2 days
Description: as §1
Immunofluorescence staining: PC3 cells were plated onto chamber slides and treated with vehicle or mahanine (2 μg/ml) for 2 days. The cells were fixed in methanol, air-dried, and re-hydrated with PBS. […]

PC3 cells = assay: Flow cytometric cell cycle analysis, PC3; assay type: cell-based, human; settings: 3 days
Description: FIG. 4A-4B. Mahanine arrests prostate cancer cells at G0/G1 phase of cell cycle. To determine if down-regulation of cyclin D1 by mahanine treatments affect cell cycle, PC3 4(A) and LNCaP 4(B) cells were treated with 0, 1 and 2 μg/ml mahanine for 3 days. After treatment, flow cytometric analyses were performed. The percentage of cells in the G0/G1, S and G2/M-phase of the cell cycle were shown on right. FACS analysis of PC3 and LNCaP prostate cancer cells with vehicle or 2 μg/ml mahanine are shown in the left panel. Values are the mean from two independent experiments in duplicates.
Since cyclin D1 regulates cell cycle progression at the G0/G1 phase, Aplicants examined the cell cycle profile of PC3 and LNCaP cells in the presence of various concentrations of mahanine.

LNCaP and PC3 cells = settings: 3 μg/ml; cited from earlier work
Akt = settings: prostate cancer cells; cited from earlier work

CC(C)=CCC[C@@]1(C)C=Cc2c(c(C)cc3c2[nH]c2cc(O)ccc23)O1 [mahanine]
cyclin D1 expression (gene array) (cyclin D1 [1]): down-regulated the expression of cyclin D1
cyclin A1 expression (RT-PCR) (cyclin A1): did not alter the expression
cyclin D1 protein levels decreased to (cyclin D1 protein; PC3 cells, 1 μg/ml, p<0.01): about 40%
cyclin D1 protein (Western blot) (cyclin D1 protein; PC3 cells, 1, 2 and 3 μg/ml): dose-dependent decrease
nuclear localization of cyclin D1 (cyclin D1 [2]): reduced and/or prevented the nuclear localization
cells in S-phase (PC3 cells; 1 μg/ml, vehicle 7.5%): decreased the S-phase
cells in G0/G1-phase (PC3 cells; 1 μg/ml, vehicle 26%): increased the G0/G1-phase
cells in G0/G1-phase (PC3 cells; 2 μg/ml): further increased
cells in S-phase (PC3 cells; 2 μg/ml): completely abolished
apoptosis (LNCaP and PC3 cells): induces apoptosis
Akt activation state (Akt): deactivated Akt
